The SangsterLogP compilation

`CC(C)c1cccc(C(C)C)c1NC(=O)CC(CC(c1ccccc1)c1ccccc1)=NO` and `CC(C)c1cccc(C(C)C)c1NC(=O)CC(O)CC(c1ccccc1)c1ccccc1` (stereo not given) are within 0.2 log units of each other in logP: 3.93 for the first, 4.01 for the second.

Compared with `CCCCCCCCCCCC(=O)C(C)(C)C(=O)N(C)c1c(OC)cc(OC)cc1OC`, `CCCCCCCCCCCC(=O)C(C)(C)C(=O)Nc1c(OC)cc(OC)cc1OC` is lower in logP: 6.67 for the first, 4.88 for the second.

Going from `CCCCCCCC1CC(C(=O)Nc2c(C(C)C)cccc2C(C)C)C(=O)O1` (stereo not given) to `CC(C)c1cccc(C(C)C)c1NC(=O)CC(=O)CCCCCCCCCCO`, the logP falls from 4.72 to 4.2.

Going from `CC(C)c1cccc(C(C)C)c1NC(=O)CC(=O)c1ccccc1` to `CC(C)c1cccc(C(C)C)c1NC(=O)CC(=O)C1(c2ccccc2)CCCC1`, the logP rises from 2.87 to 4.55.

First: CCCCCCCCCCCC(=O)CC(=O)Nc1c(OC)cc(OC)cc1OC
Second: CC(C)c1cccc(C(C)C)c1NC(=O)CC(=O)C(c1ccccc1)c1ccccc1
The logP of the first is higher: 5.02 for the first, 3.96 for the second.
